# In US20130344140A1, “NOVEL PHARMACEUTICAL COMBINATIONS AND METHODS FOR TREATING CANCER” (Agency for Science, Technology and Research, priority 2011, published 2013):
# “Also recorded” adds a separate entry of the source. Like-named read-outs stand apart in the source and are kept apart here.
# What was measured:
# A549 cells [1] = test: Cell cycle / BrdU analysis of A549 cells pretreated with nutlin-3 before VX-680; format: cell-based
# Method: Cells were treated with 200 nM VX-680 for 24 h and incubated with […] BrdU for 30 min. […] BrdU-positive cells in untreated control sample (upper left panel) and BrdU-positive cells that are […] DNA (endoreduplicating cells) (upper right panel) are highlighted in the boxes and the percentages over the total cell population are indicated.
# (b) is a schematic diagram showing the timing and order of addition of drugs. At 48 h after VX-680 treatment, cells were washed in drug-free media and incubated in drug-free media for another 48, 96 or 120 h. Cell cycle distribution was analyzed by flow cytometry. Also shown are the DNA profiles obtained using the drug treatment protocol depicted in (a).
# Cells were incubated in DMEM containing […] BrdU for 30 min in a 37° C./5% CO2 incubator. Detection of BrdU-labeled cells was performed using the In Situ Cell Proliferation Kit from Roche. In brief, cells were harvested and fixed using a 70% ethanol/50 mM Glycine (pH 2.0) on ice. Cells were pelleted and resuspended in the HCl-denaturation solution at room temperature for 20 min. Cells were then pelleted and 50 μl anti-BrdU-FLUOS antibody was added to the cells and incubated for 45 min at 37° C. in a humidified chamber. For staining of total DNA, 7-AAD was added to the cells, followed by incubation at room temperature for 10 min. Cells were analyzed immediately using flow cytometry (BD LSR II System).
# [2] = test system: MDA-MB 468 and HCT116 p53−/−; test: Annexin V apoptosis assay, p53-compromised cell lines; format: cell-based; settings: p53-compromised cells pretreated with nutlin-3 before VX-680
# Method: Cells were then harvested and stained for annexin V to detect apoptotic cells.
# For analysis of apoptosis, cells were harvested without fixation. Apoptosis was evaluated using the annexin V (fluorescein isothiocyanate (FITC))-propidium iodide binding assay (Roche, Indianapolis, Ind., USA). The extent of apoptosis was quantified as a percentage of annexin V-positive cells over the total cell population. Flow cytometric analysis was performed on a BD LSR II System (BD Biosciences, Stockholm, Sweden). Data were analyzed using FlowJo software and ModFit LT (Verity Software House, Topsham, Me., USA).
# A549 cells [3] = test: Colony survival assay, A549; format: cell-based; set-up: enhancement of the fraction of surviving colonies: dose or concentration left out as unconfirmed
# Method: (§1) Colonies were counted 2 weeks after recovery in drug-free media. Cells were fixed with glutaraldehyde and stained with crystal violet. Plates are scanned and colonies were counted with an automated image analyzer. Three independent experiments were performed for each cell line.
# (§2) Each data point represents the mean±S.D.
# (§3) A total of 1000 cells were plated on each 10 cm plate and allowed to adhere overnight. […] After 48 h, cells were washed and recovered in fresh media for 12 days. Cells were then fixed in 6% glutaraldehyde (Sigma) and stained with crystal violet. Colonies were counted using GelCount™ (Oxford Optronix, Oxford, England). Each condition was carried out in triplicate.
# HCT116p53+/+ cells = test: Colony survival assay, HCT116p53+/+; format: cell-based; settings: pretreated with nutlin-3, versus VX-680 alone
# Method: as §1, §2, §3
# HCT116 p53+/+ cells = test: Cell cycle analysis of HCT116 p53+/+ cells (nutlin-3, VX-680); format: cell-based; settings: HCT116p53+/+
# Method: (a) is a comparison of the DNA profiles of P53+/+ and p53−/− cells after treatment with VX-680. HCT116 p53+/+ and p53−/− cells were incubated with 200 nM VX-680 and cells were harvested at the indicated time points for analysis of cell cycle distribution.
# (b) is a comparison of the DNA profiles of p53+/+ and p53−/− cells with pre-treatment of Nutlin before incubation with VX-680.
# A549 cells [4] = test: Micronuclei formation and γH2AX staining (immunofluorescence microscopy) in A549 cells; format: cell-based; settings: A549; nutlin-3 only, or nutlin-3 16 h before VX-680 48 h
# Method: Cells were fixed and stained for γH2AX (green) as described in Materials and Methods in the Examples. Nuclei were counterstained with DAPI blue. Visualization of nuclei and γH2AX positive foci was done by fluorescence microscopy.
# Indirect immunofluorescence was carried out as described previously.^14 g-H2AX (Novus Biologicals, Littleton, Colo., USA, NB 100-383) and anti-rabbit Alexa 488-coupled secondary antibody (Molecular Probes, Carlsbad, Calif., USA) were used. Nuclei were counterstained with Hoechst 33342 (Molecular Probes). Immunofluorescence was visualized using Axiolmager Z1 (Zeiss, Gottingen, Germany).
# [5] = test system: HCT116p53+/+ (green) and HCT116p53−/− (red) cells; test: Co-culture of HCT116p53+/+ GFP and HCT116p53−/− RFP cells; format: cell-based; settings: mixed population pretreated with nutlin-3 then VX-680, 5 days after drugs removal
# Source text: (e) is a schematic illustration of fluorescent microscopy images of HCT116 p53+/+ and p53−/− cells that were transduced with recombinant lentiviruses carrying GFP and RFP genes, respectively. The cells were selected in zeocin for 2 weeks to achieve the stable cell lines, HCT116 p53+/+GFP and HCT116 p53−/− RFP. Equal numbers of HCT116 p53+/+GFP and p53−/− RFP were mixed and seeded to achieve 30% growth confluency. […] Cells were then washed twice with drug-free media and allowed to recover for 5 days in fresh complete media. Microscopy images were taken with Deltavision (Axio). […] Insets 1 and 2 show higher magnification of the images on the left.
# We further studied the responses of p53 wild-type and p53-deficient cells in co-culture system, in which both cell types were cultured together for the duration of the experiment. HCT116p53+/+ and the HCT116p53−/− cells were distinguished using green fluorescent protein (GFP) and red fluorescent protein (RFP) fluorescent markers. Equal numbers of HCT116p53+/+ (green) and HCT116p53−/− (red) cells were mixed and plated in 10 cm plates, before exposure to a similar drug dosage regimen as described in FIG. 6c.
# p53-deficient HCT116 = test: Colony survival assay, p53-deficient HCT116; format: cell-based; settings: p53-deficient HCT116, nutlin-3 pretreatment before VX-680
# Method: as §1, §2, §3
# human keratinocytes = settings: for tetraploidy / endoreduplication after nutlin pretreatment: keratinocytes pretreated with nutlin-3 16 h, then VX-680 (200 nM) 48 h
# Method: Primary human keratinocytes were purchased from Invitrogen and cultured in defined keratinocyte serum-free media (Invitrogen). All cell lines were cultured in a CO2 incubator (5% CO2 and 21% O2) at 37° C.
# For analysis of cell cycle distribution, cells were harvested and fixed in 70% ethanol/PBS solution. Cells were stained in propidium-iodide containing solution (25 μg/ml propidium iodide supplemented with 1 mg/ml RNase A, in PBS (pH 7.8); Sigma Chemical, St Louis, Mo., USA) for 15 min at room temperature.
# ATM = ATM / DNA damage checkpoint dependence of VX-680-induced G2 arrest (western blot, DNA FACS profiles); format: cell-based
# Method: For western blotting, cell extracts were prepared using NP-40 lysis buffer (50 mM Tris-HCl (pH 8.0), 150 mM NaCl, 1% NP-40, 5 mM EDTA supplemented with protease and phosphatase inhibitor cocktails (Sigma).
smiles,measurement,setting,value
COc1ccc(C2=N[C@@H](c3ccc(Cl)cc3)[C@@H](c3ccc(Cl)cc3)N2C(=O)N2CCNC(=O)C2)c(OC(C)C)c1 [nutlin-3],cell cycle arrest of nutlin-3-pretreated cells,"A549 cells [1]; A549, nutlin-3 (5 µM) before VX-680 treatment, 48 h VX-680, confirmed by BrdU assay",arrested cells even after 48 h of VX-680 exposure
same,cell cycle arrest of nutlin-3-pretreated cells,"A549 cells [1]; A549, nutlin-3 (5 μM) followed by VX-680 (200 nM)",remained arrested at G1
same,DNA profile after recovery in drug-free media,"A549 cells [1]; A549, nutlin-3 pretreatment then VX-680, recovered in drug-free media",normal diploid DNA profile
same,degree of apoptosis with nutlin-3 pretreatment,[2],no significant difference
same,enhancement of the fraction of surviving colonies,"A549 cells [3]; A549, pretreated with for 16 h before VX-680 48 h, versus VX-680 alone",up to 20 fold
same,number of surviving colonies,A549 cells [3]; nutlin alone,moderately decreases
same,better survival (colony formation),HCT116p53+/+ cells,up to 15 fold
same,cell cycle arrest by nutlin,HCT116 p53+/+ cells,induced an arrest
same,protection from VX-680-induced endoreduplication by nutlin pretreatment,HCT116 p53+/+ cells; nutlin-3 16 h then VX-680 (200 nM) and nutlin-3 48 h,protects
same,frequency of micronuclei and γH2AX staining,A549 cells [4],low frequency
same,number of HCT116p53+/+ (green) cells versus HCT116p53−/− (red) cells,[5],far more than
same,colony survival rate,p53-deficient HCT116,did not affect
same,cellular viability,human keratinocytes,high cellular viability
same,tetraploidy / endoreduplication after nutlin pretreatment,human keratinocytes; listed as Nutlin,did not show significant tetraploidy
same,tetraploidy / endoreduplication after nutlin pretreatment,human keratinocytes; listed as Nutlin-3,protects primary human keratinocytes from endoreduplication
O=c1cc(-c2cccc3c2Sc2ccccc2S3)oc(N2CCOCC2)c1 [KU55933],γH2AX and ATM-S1981 phosphorylation in response to doxorubicin,ATM; KU55933 with 1 μM doxorubicin,abrogates the observed phosphorylation in a dose-dependent manner; also recorded: clearly reduced
same,effect on VX-680-induced G2 arrest,ATM; pre-treatment with KU55933 before VX-680,does not abrogate
COc1cccc2c1C(=O)c1c(O)c3c(c(O)c1C2=O)C[C@@](O)(C(=O)CO)C[C@@H]3O[C@H]1C[C@H](N)[C@H](O)[C@H](C)O1 [doxorubicin],"phospho-S1981 ATM, phospho-H2AX, phospho-S15 p53",ATM; 1 μM doxorubicin,accumulation
